# In paper PMC8703450, “New Heterocyclic Combretastatin A-4 Analogs: Synthesis and Biological Activity of Styryl-2(3H)-benzothiazolones” (Pharmaceuticals, 2021):
# Key:
# A549 cells = experiment: MTT cytotoxicity assay, A549; type: cell-based; conditions: Homo sapiens, 72 h
# Experimental: All tested compounds were dissolved in DMSO at 25 mM initial concentration and diluted with medium to obtain the working concentrations (0.01 nM–250 µM). Serial drug dilutions were prepared in medium immediately before each experiment. The DMSO working concentration in the medium was […]. For the MTT assay, cells were seeded into 96-well microtitre plates at a density of 1 × 10^4 in 100 µL complete medium per well. They were further incubated for 24 h, followed by treatment with CA-4 analogs up to 72 h. Cell viability was determined using the MTT assay. Ten µL of MTT solution (5 mg/mL) was added to each well and further incubated for 3 h at 37 °C. To dissolve the formazan product, 100 µL/well of 99.5% isopropanol was added. Cell viability was determined by measuring absorbance at 550/630 nm using a DTX880 plate reader (Beckman Coulter, USA). Results, expressed as concentrations that inhibit 20% (IC20), 50% (IC50), and 80% (IC80) of cell growth, were calculated using GraphPad Prism 8.0.1.
# Table S 3.1. Description of eukaryotic cell lines used for MTT assay.
# Panel Cell line Origin Tissue, characteristics Source Culture conditions
# (h) lung carcinoma ATCC, CCL-185 U/mL penicillin, 100
# lung, bronchus; insulin, rhEGF, GA- […]
# Colon BAS) 10% (v/v) FBS, 100
# EA.hy926 cells = experiment: Immunofluorescence of mitotic spindles (α-tubulin); type: cell-based, human; conditions: 24 h
# Experimental: Indirect immunofluorescence was used to examine the effect of 26Z on α-tubulin in EA.hy 926 cells. A total of 1 × 10^4 cells grown on coverslips were washed with PBS and fixed with 3.7% buffered paraformaldehyde. Single fluorescence cell labeling was performed, as described by Apostolova et al., with a primary chicken antibody against α-tubulin (ab89984, Abcam) for 2 h. Cells were washed three times with PBS for 5 min and incubated for 60 min with a goat anti-chicken secondary antibody labeled with AlexaFluor-488 (ab150173, Abcam). F-actin was detected using AlexaFluor-568 Phalloidin (Invitrogen, MA, USA). Following three washes with PBS and two in water, the slides were mounted in UltraCruz fluorescence mounting medium with DAPI (sc-24941, Santa Cruz Biotechnology, USA). Fluorescence microscopy was performed with a Carl Zeiss Axiovert 200 M Inverted Microscope and Andor Dragonfly 505 Confocal Microscope equipped with an iXon Ultra 888 EMCCD camera (Andor, Oxford Instruments, Belfast, Northern Irelands).
smiles,measurement,setting,value
"COc1ccc(/C=C\c2cc(OC)c(OC)c(OC)c2)cc1O [CA-4, Combretastatin A-4]",IC50,A549 cells,3.01 ± 0.16 µM
"COc1cc(/C=C\c2ccc3c(c2)sc(=O)n3C)cc(OC)c1OC [Compound 26Z, (Z)-3-methyl-6-(3,4,5-trimethoxystyryl)-2(3H)-benzothiazolone]",number of spindle poles (multipolarity),"EA.hy926 cells; EA.hy926, IC50 (130 nM)",3.9 ± 0.99
same,number of spindle poles (multipolarity),"EA.hy926 cells; EA.hy926, IC80 (300 nM)",8.8 ± 2.3
